Measured values published in patent US4727061A, “Pharmaceutical preparations having diuretic activity” (Rohm GmbH, priority 1984, dated 1988).

Test system: female Sprague-Dawley rats
Assay: Natriuretic activity in anesthetized, catheterized rats under i.v. saline/fructose infusion (method of Kramer et al.)
Format: in vivo
Conditions: 250 micrograms of peptide per rat
Excerpt: In the test protocol employed, female Sprague-Dawley rats weighing from 206 to 250 g were used as test animals. Before the test, the rats were exposed to a normal diet and had free access to food and water. On the day of the test, the rats were anesthetized with methohexital and catheters were inserted in the aorta and the jugular vein and from there through the abdomen in the bladder.
The animals were then placed into individual cages mounted on a scale. A 0.45% saline solution with 2.5% fructose was then administered to them intravenously at a rate ranging from 33 to 62 microliters per minute so that the body weight remained constant. Two hours after the animals had recovered, 15 minute urine collection periods were initiated and continued throughout the test. The diuretic material to be tested was dissolved (at pH 7.4) in the infusion solution, which contained tris HCl as a buffer. In the case of the fractions characterized by natriuresis, 15 minute urine samples were collected until the sodium excretion had again reached the base line, and the rate of infusion was adjusted so that the body weight remained constant. The arterial blood pressure was monitored throughout the test by means of a pressure measuring apparatus (Statham P-23-Db). The sodium and potassium concentrations in serum and urine were monitored by flame photometry.
250 micrograms of the peptide substance to be tested were administered to each rat.
(2) Sodium excretion in treated rats in micromoles per minute per milligram of administered substance of formula I.
(3) Time of maximum activity (tmax) in minutes.
(4) Increase in natriuresis as quotient F=(Na^+ excretion after treatment)/(Na^+ excretion before treatment).

Substance: Gly-Gly
- (3) Time of maximum activity (tmax): 1.5 to 2.5 h
- (4) Increase in natriuresis as quotient F = (Na+ excretion after treatment)/(Na+ excretion before treatment): 39.8
- (2) Na+ excretion in treated rats (treated rats, in the i.v. infusion solution, pH 7.4, 15 minute urine collections): 14.7 micromoles per minute per mill
- (2) Q = K+/Na+ in treated rats (treated rats, urinary K+/Na+ quotient): 0.63
